Test results as given in ChEMBL document CHEMBL4184156, “Repurposing Hsp90 inhibitors as antibiotics targeting histidine kinases” (Bioorg Med Chem Lett, 2017).
Values after ≈ are worked out from the molar mass of the structure shown. Active and inactive are the calls of the source. No cut-off for these calls is given here.

What was measured:
[1] = molecular target: T1, Cell cycle histidine kinase CckA (Caulobacter vibrioides) (UniProt Q9X688); assay: Binding affinity to recombinant Caulobacter vibrioides cell cycle histidine kinase CckA delta 3 mutant DHp domain (190 to 562 residues) expressed in Escherichia coli assessed as change in metlting temperature at 30 uM after 2 mins by SYPRO orange dye based DSF assay
T1 sequence (whole entry): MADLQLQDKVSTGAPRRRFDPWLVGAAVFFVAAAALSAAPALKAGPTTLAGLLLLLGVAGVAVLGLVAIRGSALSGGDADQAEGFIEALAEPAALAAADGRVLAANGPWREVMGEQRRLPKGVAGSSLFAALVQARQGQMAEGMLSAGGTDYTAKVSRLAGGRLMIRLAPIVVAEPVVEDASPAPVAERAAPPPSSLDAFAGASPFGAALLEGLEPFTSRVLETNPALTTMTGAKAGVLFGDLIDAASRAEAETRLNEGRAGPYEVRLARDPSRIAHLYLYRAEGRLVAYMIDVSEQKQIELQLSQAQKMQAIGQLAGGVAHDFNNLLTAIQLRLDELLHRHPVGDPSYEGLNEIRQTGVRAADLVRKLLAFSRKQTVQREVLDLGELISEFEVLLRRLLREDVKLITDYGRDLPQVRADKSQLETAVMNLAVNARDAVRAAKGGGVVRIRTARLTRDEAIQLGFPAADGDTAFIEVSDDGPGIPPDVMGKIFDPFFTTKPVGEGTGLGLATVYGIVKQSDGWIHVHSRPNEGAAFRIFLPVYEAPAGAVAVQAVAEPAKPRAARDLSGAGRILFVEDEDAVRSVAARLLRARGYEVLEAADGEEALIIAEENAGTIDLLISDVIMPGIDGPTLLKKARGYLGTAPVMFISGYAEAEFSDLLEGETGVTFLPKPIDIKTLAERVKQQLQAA

[2] = molecular target: T2, Virulence sensor histidine kinase PhoQ (Salmonella typhimurium (strain LT2 / SGSC1412 / ATCC 700720), UniProt P0DM80); assay: (§1) Inhibition of recombinant Salmonella typhimurium N-terminal His6-SUMO-tagged DHp-catalytic domain PhoQ (257 to 487 residues) autophosphorylation expressed in Escherichia coli BL21 (DE3) preincubated for 10 mins followed by [gamma-32P]-ATP addition after 30 mins by phosphotransferase dot blot assay; set-up: species or system Salmonella enterica subsp. enterica serovar Typhimurium
T2 sequence (P0DM80 whole entry): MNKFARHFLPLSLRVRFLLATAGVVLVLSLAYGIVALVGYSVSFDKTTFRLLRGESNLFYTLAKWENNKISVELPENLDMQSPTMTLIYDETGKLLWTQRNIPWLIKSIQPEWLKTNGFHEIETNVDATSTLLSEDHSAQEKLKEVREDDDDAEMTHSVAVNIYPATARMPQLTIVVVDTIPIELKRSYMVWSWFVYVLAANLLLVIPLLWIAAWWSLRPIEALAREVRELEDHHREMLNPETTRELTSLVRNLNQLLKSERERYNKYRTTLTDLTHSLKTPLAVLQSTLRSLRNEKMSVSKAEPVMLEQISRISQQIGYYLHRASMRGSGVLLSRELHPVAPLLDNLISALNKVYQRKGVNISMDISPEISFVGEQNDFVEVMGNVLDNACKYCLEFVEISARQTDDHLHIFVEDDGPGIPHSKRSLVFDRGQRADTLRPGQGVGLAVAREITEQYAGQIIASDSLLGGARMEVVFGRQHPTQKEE

[3] = Hemolytic activity against sheep RBC at 0.5 mM after 30 mins relative to control; format: ADME, cell-based, Ovis aries, Erythrocyte; conditions: sheep red blood cells (erythrocytes), read-out: Activity
[4] = molecular target: Cell cycle histidine kinase CckA (Caulobacter vibrioides, UniProt Q9X688); assay: Inhibition of recombinant Caulobacter vibrioides cell cycle histidine kinase CckA deltaTM mutant DHp domain (70 to 691 residues) expressed in Escherichia coli in presence of varying levels of ATP measured every 60 secs for 2 hrs by PK/LDH enzyme coupled assay
Bacillus subtilis = assay: Antibacterial activity against Bacillus subtilis YB886 after 24 hrs by broth dilution method; format: functional; conditions: YB886, 24 h
[5] = molecular target: T1, Cell cycle histidine kinase CckA (Caulobacter vibrioides); assay: Inhibition of recombinant Caulobacter vibrioides cell cycle histidine kinase CckA deltaTM mutant DHp domain (70 to 691 residues) expressed in Escherichia coli at 250 uM in presence of varying levels of ATP measured every 60 secs for 2 hrs by PK/LDH enzyme coupled assay relative to control
[6] = molecular target: T3, Histidine protein kinase DivJ (Caulobacter vibrioides (strain ATCC 19089 / CB15) (Caulobactercrescentus)) (UniProt Q03228); assay: Inhibition of recombinant Caulobacter vibrioides N-terminal His6-tagged DHp-catalytic domain DivJ (188 to 585 residues) autophosphorylation expressed in Escherichia coli BL21(DE3) at 500 uM preincubated for 10 mins followed by [gamma-32P]-ATP addition after 15 mins by phosphotransferase dot blot assay relative to control; set-up: scale not given: the % may be the effect or the level left
T3 sequence (whole entry): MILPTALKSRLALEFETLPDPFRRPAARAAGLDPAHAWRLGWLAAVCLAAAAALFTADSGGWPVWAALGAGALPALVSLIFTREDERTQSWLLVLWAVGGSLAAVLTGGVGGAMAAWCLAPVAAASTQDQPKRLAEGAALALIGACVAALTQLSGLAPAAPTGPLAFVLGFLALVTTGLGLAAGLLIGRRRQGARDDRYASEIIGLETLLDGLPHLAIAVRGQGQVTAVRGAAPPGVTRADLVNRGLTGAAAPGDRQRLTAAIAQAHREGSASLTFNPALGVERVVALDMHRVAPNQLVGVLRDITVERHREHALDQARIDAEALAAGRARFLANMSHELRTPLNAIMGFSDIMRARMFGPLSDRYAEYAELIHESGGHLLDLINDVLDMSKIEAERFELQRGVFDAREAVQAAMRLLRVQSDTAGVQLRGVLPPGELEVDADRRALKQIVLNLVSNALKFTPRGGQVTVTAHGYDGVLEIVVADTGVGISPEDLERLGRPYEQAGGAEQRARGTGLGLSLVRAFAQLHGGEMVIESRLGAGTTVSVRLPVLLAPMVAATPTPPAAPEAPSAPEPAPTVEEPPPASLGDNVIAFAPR

[7] = molecular target: T4, Virulence sensor histidine kinase PhoQ (Salmonella typhimurium (strain LT2 / SGSC1412 / ATCC 700720)) (UniProt P0DM80); assay: as §1, with “BL21(DE3) at 500 uM” for “BL21 (DE3)”, “assay relative to control” for “assay”; set-up: scale not given: the % may be the effect or the level left; conditions: Salmonella enterica subsp. enterica serovar Typhimurium
T4 sequence (whole entry): T2 sequence (P0DM80 whole entry)

Escherichia coli = assay: Antibacterial activity against Escherichia coli DC2 after 24 hrs by broth dilution method; format: functional; conditions: DC2, 24 h
Caulobacter vibrioides = assay: Antibacterial activity against Caulobacter crescentus NA1000 after 24 hrs by broth dilution method; format: functional; conditions: NA1000, 24 h
[8] = molecular target: T4, Virulence sensor histidine kinase PhoQ (Salmonella typhimurium (strain LT2 / SGSC1412 / ATCC 700720)); assay: as §1, with “(DE3) at 800 uM” for “(DE3)”, “assay relative to control” for “assay”; set-up: scale not given: the % may be the effect or the level left; conditions: Salmonella enterica subsp. enterica serovar Typhimurium
[9] = molecular target: T4, Virulence sensor histidine kinase PhoQ (Salmonella typhimurium (strain LT2 / SGSC1412 / ATCC 700720)); assay: Inhibition of recombinant Salmonella typhimurium N-terminal His6-SUMO-tagged PhoQ (257 to 487 residues) expressed in Escherichia coli BL21 (DE3) assessed as enzyme aggregation at 400 uM after 30 mins by native-PAGE analysis; conditions: Salmonella enterica subsp. enterica serovar Typhimurium

Row | Structure (SMILES) | ΔTm [1] [°C] | IC50 [2] [µM] | hemolysis at 0.5 h, 500 µM [3] [%] | IC50 [4] [µM] | MIC (Bacillus subtilis) [µM] | inhibition [5] [%] | Activity [6] [%] | Activity [7] [%] | MIC (Escherichia coli) [µM] | MIC (Caulobacter vibrioides) [µM] | Activity [8] [%] | inhibition [9]
1 | Nc1ncnc2c1ncn2[C@@H]1O[C@H](COP(=O)(O)OP(=O)(O)NP(=O)(O)O)[C@@H](O)[C@H]1O | 3.5 | – | – | – | – | – | – | – | – | – | – | –
2 | CCc1cc(-c2n[nH]c(C)c2-c2ccc3c(c2)OCCO3)c(O)cc1O | – | 261 | 14 | 28 to 30 | – | – | – | – | – | – | – | –
3 | CC(C)NCCCn1c(Sc2cc3c(cc2I)OCO3)nc2c(N)ncnc21 [PU-H71] | 0.5 | – | 1 | – | > 300 | 61 | 122 | 103 | 75 to 225 (≈ 38.4 to 115 µg/mL) | > 300 | – | –
4 | COc1ccc(-c2c[nH]nc2-c2ccc(O)cc2O)cc1 | 3.5 | – | 3 | 56.9 | > 300 | – | 85 | 87 | 37.5 to 112 (≈ 10.6 to 31.8 µg/mL) | > 300 | – | –
5 | Oc1cc(O)c(-c2n[nH]cc2-c2ccccc2)cc1Cl | 3.5 | – | 0 | 33.6 | 225 (≈ 64.5 µg/mL) | – | 92 | 63 | 37.5 (≈ 10.8 µg/mL) | 150 to 225 (≈ 43 to 64.5 µg/mL) | – | –
6 | COc1c(C)cnc(Cn2cnc3c(Cl)nc(N)nc32)c1C [BIIB021] | 0.7 | – | 6 | – | > 300 | 87 | 128 | 87 | > 300 | > 300 | – | –
7 | COc1ccc(-c2c[nH]nc2-c2cc(Cl)c(O)cc2O)cc1 | 4.2 | – | 0 | 32.7 | 150 (≈ 47.5 µg/mL) | – | 112 | 62 | 37.5 (≈ 11.9 µg/mL) | 225 (≈ 71.3 µg/mL) | – | –
8 | Cc1n[nH]c(-c2cc(Cl)c(O)cc2O)c1-c1ccccc1 | 4.5 | – | – | – | 150 (≈ 45.1 µg/mL) | – | 115 | 45 | 37.5 to 75 (≈ 11.3 to 22.6 µg/mL) | 225 (≈ 67.7 µg/mL) | – | –
9 | CCNC(=O)c1noc(-c2cc(C(C)C)c(O)cc2O)c1-c1ccc(CN2CCOCC2)cc1 [LUMINESPIB] | 1.8 | – | 1 | 7.3 to 28 | > 300 | – | 109 | 73 | 37.5 to 75 (≈ 17.5 to 34.9 µg/mL) | > 300 | 56 | inactive
